# US20240190880A1 (THE REGENTS OF THE UNIVERSITY OF MICHIGAN, priority 2021, published 2024)
# Target: T1, ER (Homo sapiens, UniProt P03372)
# T1 construct: host or cells: T47D and MCF7 human breast cancer cells
# T1 sequence (P03372 1-595): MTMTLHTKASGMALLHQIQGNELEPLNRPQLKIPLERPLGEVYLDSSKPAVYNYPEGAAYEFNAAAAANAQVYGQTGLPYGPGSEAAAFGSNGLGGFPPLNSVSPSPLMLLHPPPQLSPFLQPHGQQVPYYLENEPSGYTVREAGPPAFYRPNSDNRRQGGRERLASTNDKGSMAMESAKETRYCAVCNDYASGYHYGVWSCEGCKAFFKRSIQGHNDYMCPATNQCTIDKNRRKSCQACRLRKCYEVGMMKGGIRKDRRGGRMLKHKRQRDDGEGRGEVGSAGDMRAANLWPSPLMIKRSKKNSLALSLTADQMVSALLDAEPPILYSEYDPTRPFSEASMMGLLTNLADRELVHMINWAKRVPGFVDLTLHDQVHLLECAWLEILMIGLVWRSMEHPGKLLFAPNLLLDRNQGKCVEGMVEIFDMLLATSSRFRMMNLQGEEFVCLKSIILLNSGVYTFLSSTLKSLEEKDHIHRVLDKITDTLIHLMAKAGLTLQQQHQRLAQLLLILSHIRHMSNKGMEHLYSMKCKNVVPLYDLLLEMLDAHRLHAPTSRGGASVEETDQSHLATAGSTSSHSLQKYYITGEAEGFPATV
# Test: ER degradation activity, in-cell western blot analysis in T47D cells
# Assay type: cell-based
# Conditions: 16 hours, Table A does not say which cell line (T47D or MCF7), read-out: Potency (DC50)
# Outline: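 T47D cells grown in DMEM with 10% FBS were treated with compounds for 16 hours at 0.5% DMSO final. ER was detected by in-cell western using 680/800 near-infrared secondary antibodies. Residual ER is given as percent of untreated and DMSO-treated wells set to 100%.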
row,SMILES,DC50
1,"C[C@@H]1Cc2c([nH]c3ccccc23)[C@@H](c2c(F)cc(N3CCCC4(CN(C(=O)CN5Cc6cc7c(cc6C5)C(=O)N(C5CCC(=O)NC5=O)C7)C4)C3)cc2F)N1CC(F)F (stereo partly drawn) [E 70, 3-(6-(2-(6-(4-((1R,3R)-2-(2,2-difluoroethyl)-3-methyl-2,3,4,9-tetrahydro-1H-pyrido[3,4-b]indol-1-yl)-3,5-difluorophenyl)-2,6-diazaspiro[3.5]nonan-2-yl)-2-oxoethyl)-1-oxo-3,5,6,7-tetrahydropyrrolo[3,4-f]isoindol-2(1H)-yl)piperidine-2,6-dione]",10 to 100 nM
2,"C[C@@H]1Cc2c([nH]c3ccccc23)[C@@H](c2c(F)cc(N3CC4(CN(C(=O)CN5Cc6cc7c(cc6C5)C(=O)N(C5CCC(=O)NC5=O)C7)C4)C3)cc2F)N1CC(F)F (stereo partly drawn) [E 71, 3-(6-(2-(6-(4-((1R,3R)-2-(2,2-difluoroethyl)-3-methyl-2,3,4,9-tetrahydro-1H-pyrido[3,4-b]indol-1-yl)-3,5-difluorophenyl)-2,6-diazaspiro[3.3]heptan-2-yl)-2-oxoethyl)-1-oxo-3,5,6,7-tetrahydropyrrolo[3,4-f]isoindol-2(1H)-yl)piperidine-2,6-dione]",< 10 nM
3,"C[C@@H]1Cc2c([nH]c3ccccc23)[C@@H](c2c(F)cc(N3CCC4(CN(C(=O)CN5Cc6cc7c(cc6C5)C(=O)N(C5CCC(=O)NC5=O)C7)C4)C3)cc2F)N1CC(F)F (stereo partly drawn) [E 72, 3-(6-(2-(6-(4-((1R,3R)-2-(2,2-difluoroethyl)-3-methyl-2,3,4,9-tetrahydro-1H-pyrido[3,4-b]indol-1-yl)-3,5-difluorophenyl)-2,6-diazaspiro[3.4]octan-2-yl)-2-oxoethyl)-1-oxo-3,5,6,7-tetrahydropyrrolo[3,4-f]isoindol-2(1H)-yl)piperidine-2,6-dione]",< 10 nM
4,"C[C@@H]1Cc2c([nH]c3ccccc23)[C@@H](c2c(F)cc(N3CC4(CCN(CC(=O)N5Cc6cc7c(cc6C5)C(=O)N(C5CCC(=O)NC5=O)C7)C4)C3)cc2F)N1CC(F)F (stereo partly drawn) [E 73, 3-(6-(2-(2-(4-((1R,3R)-2-(2,2-difluoroethyl)-3-methyl-2,3,4,9-tetrahydro-1H-pyrido[3,4-b]indol-1-yl)-3,5-difluorophenyl)-2,6-diazaspiro[3.4]octan-6-yl)acetyl)-1-oxo-3,5,6,7-tetrahydropyrrolo[3,4-f]isoindol-2(1H)-yl)piperidine-2,6-dione]",< 10 nM
5,"C[C@@H]1Cc2c([nH]c3ccccc23)[C@@H](c2c(F)cc(N3CC4(CCN(CC(=O)N5Cc6cc7c(cc6C5)C(=O)N(C5CCC(=O)NC5=O)C7=O)C4)C3)cc2F)N1CC(F)F (stereo partly drawn) [E 74, 6-(2-(2-(4-((1R,3R)-2-(2,2-difluoroethyl)-3-methyl-2,3,4,9-tetrahydro-1H-pyrido[3,4-b]indol-1-yl)-3,5-difluorophenyl)-2,6-diazaspiro[3.4]octan-6-yl)acetyl)-2-(2,6-dioxopiperidin-3-yl)-6,7-dihydropyrrolo[3,4-f]isoindole-1,3(2H,5H)-dione]",10 to 100 nM

# The remaining lines, values ahead:
row,DC50,SMILES
1,10 to 100 nM,"C[C@@H]1Cc2c([nH]c3ccccc23)[C@@H](c2c(F)cc(N3CCC4(CCN(CC(=O)N5Cc6cc7c(cc6C5)C(=O)N(C5CCC(=O)NC5=O)C7)C4)C3)cc2F)N1CC(F)F (stereo partly drawn) [E 75, 3-(6-(2-(7-(4-((1R,3R)-2-(2,2-difluoroethyl)-3-methyl-2,3,4,9-tetrahydro-1H-pyrido[3,4-b]indol-1-yl)-3,5-difluorophenyl)-2,7-diazaspiro[4.4]nonan-2-yl)acetyl)-1-oxo-3,5,6,7-tetrahydropyrrolo[3,4-f]isoindol-2(1H)-yl)piperidine-2,6-dione]"
2,> 100 nM,"C[C@@H]1Cc2c([nH]c3ccccc23)[C@@H](c2c(F)cc(N3CCC4(CCN(CC(=O)N5Cc6cc7c(cc6C5)C(=O)N(C5CCC(=O)NC5=O)C7=O)C4)C3)cc2F)N1CC(F)F (stereo partly drawn) [E 76, 6-(2-(7-(4-((1R,3R)-2-(2,2-difluoroethyl)-3-methyl-2,3,4,9-tetrahydro-1H-pyrido[3,4-b]indol-1-yl)-3,5-difluorophenyl)-2,7-diazaspiro[4.4]nonan-2-yl)acetyl)-2-(2,6-dioxopiperidin-3-yl)-6,7-dihydropyrrolo[3,4-f]isoindole-1,3(2H,5H)-dione]"
3,< 10 nM,"C[C@@H]1Cc2c([nH]c3ccccc23)[C@@H](c2c(F)cc(N3CC4(CCN(C(=O)CN5Cc6cc7c(cc6C5)C(=O)N(C5CCC(=O)NC5=O)C7=O)C4)C3)cc2F)N1CC(F)F (stereo partly drawn) [E 77, 6-(2-(2-(4-((1R,3R)-2-(2,2-difluoroethyl)-3-methyl-2,3,4,9-tetrahydro-1H-pyrido[3,4-b]indol-1-yl)-3,5-difluorophenyl)-2,6-diazaspiro[3.4]octan-6-yl)-2-oxoethyl)-2-(2,6-dioxopiperidin-3-yl)-6,7-dihydropyrrolo[3,4-f]isoindole-1,3(2H,5H)-dione]"
4,> 100 nM,"C[C@@H]1Cc2c([nH]c3ccccc23)[C@@H](c2c(F)cc(N3CCCC4(CCN(C(=O)CN5Cc6cc7c(cc6C5)C(=O)N(C5CCC(=O)NC5=O)C7=O)C4)C3)cc2F)N1CC(F)F (stereo partly drawn) [E 78, 6-(2-(7-(4-((1R,3R)-2-(2,2-difluoroethyl)-3-methyl-2,3,4,9-tetrahydro-1H-pyrido[3,4-b]indol-1-yl)-3,5-difluorophenyl)-2,7-diazaspiro[4.5]decan-2-yl)-2-oxoethyl)-2-(2,6-dioxopiperidin-3-yl)-6,7-dihydropyrrolo[3,4-f]isoindole-1,3(2H,5H)-dione]"
5,10 to 100 nM,"C[C@@H]1Cc2c([nH]c3ccccc23)[C@@H](c2c(F)cc(N3CCC4(CCN(C(=O)CN5Cc6cc7c(cc6C5)C(=O)N(C5CCC(=O)NC5=O)C7=O)C4)C3)cc2F)N1CC(F)F (stereo partly drawn) [E 79, 6-(2-(7-(4-((1R,3R)-2-(2,2-difluoroethyl)-3-methyl-2,3,4,9-tetrahydro-1H-pyrido[3,4-b]indol-1-yl)-3,5-difluorophenyl)-2,7-diazaspiro[4.4]nonan-2-yl)-2-oxoethyl)-2-(2,6-dioxopiperidin-3-yl)-6,7-dihydropyrrolo[3,4-f]isoindole-1,3(2H,5H)-dione]"
6,10 to 100 nM,"C[C@@H]1Cc2c([nH]c3ccccc23)[C@@H](c2c(F)cc(N3CCCC4(CN(C(=O)CN5Cc6cc7c(cc6C5)C(=O)N(C5CCC(=O)NC5=O)C7=O)C4)C3)cc2F)N1CC(F)F (stereo partly drawn) [E 81, 6-(2-(6-(4-((1R,3R)-2-(2,2-difluoroethyl)-3-methyl-2,3,4,9-tetrahydro-1H-pyrido[3,4-b]indol-1-yl)-3,5-difluorophenyl)-2,6-diazaspiro[3.5]nonan-2-yl)-2-oxoethyl)-2-(2,6-dioxopiperidin-3-yl)-6,7-dihydropyrrolo[3,4-f]isoindole-1,3(2H,5H)-dione]"
7,< 10 nM,"C[C@@H]1Cc2c([nH]c3ccccc23)[C@@H](c2c(F)cc(N3CC4(CN(C(=O)CN5Cc6cc7c(cc6C5)C(=O)N(C5CCC(=O)NC5=O)C7=O)C4)C3)cc2F)N1CC(F)F (stereo partly drawn) [E 82, 6-(2-(6-(4-((1R,3R)-2-(2,2-difluoroethyl)-3-methyl-2,3,4,9-tetrahydro-1H-pyrido[3,4-b]indol-1-yl)-3,5-difluorophenyl)-2,6-diazaspiro[3.3]heptan-2-yl)-2-oxoethyl)-2-(2,6-dioxopiperidin-3-yl)-6,7-dihydropyrrolo[3,4-f]isoindole-1,3(2H,5H)-dione]"
